Patent publication US6080758A, “Benzenesulfonamide derivatives as bradykinin antagonists” (Fournier Industrie et Sante, priority 1995, dated 2000)

Molecular target: T1, bradykinin B2 receptor (Cavia porcellus, UniProt O70526)
T1 construct: Ileum segments are isolated from male guinea-pigs; tissue Iffa Credo, l'Arbresle, France (supplier of the animals); host or cells: ileum membranes of male Dunkin-Hartley guinea-pigs
T1 sequence (O70526 1-372): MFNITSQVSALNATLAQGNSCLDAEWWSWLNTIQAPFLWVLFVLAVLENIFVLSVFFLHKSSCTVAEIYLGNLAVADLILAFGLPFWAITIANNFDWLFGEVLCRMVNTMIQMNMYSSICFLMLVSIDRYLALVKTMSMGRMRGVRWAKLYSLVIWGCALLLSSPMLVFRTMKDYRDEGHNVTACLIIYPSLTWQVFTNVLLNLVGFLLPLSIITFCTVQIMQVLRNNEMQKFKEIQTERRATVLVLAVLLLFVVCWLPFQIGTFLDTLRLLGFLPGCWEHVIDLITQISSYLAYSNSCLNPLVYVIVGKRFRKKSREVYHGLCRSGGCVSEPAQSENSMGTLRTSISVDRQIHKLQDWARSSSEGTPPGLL
Test: [3H]-bradykinin binding to guinea-pig ileum membranes
Details: test compound 10^-6 M, [3H]-bradykinin 120 pM, 90 min at 20° C., read-out: Activity (%): percentage inhibition of the binding of [3H]-bradykinin
Procedure: We used the following pharmacological test: Ileum segments are isolated from male guinea-pigs of the Dunkin-Hartley strain (Iffa Credo, l'Arbresle, France) and ground in the following TES buffer: TES 25 mM, 1,10-phenanthroline 1 mM (pH 6.8), bacitracin 140 μg/ml, BSA 1 g/l. The membranes are then isolated by centrifugation (18,000 rpm; 20 min; 4° C.). The binding studies are carried out in the TES buffer using [^3 H]-bradykinin (120 pM) and 50 μg of membrane protein per test (final volume 500 μl) with an equilibrium time of 90 min at 20° C. The percentage inhibition of the binding of [^3 H]-bradykinin is then determined in the presence of one of the test compounds according to the invention at a concentration of 10^-6 M.
The results obtained (indicated as "activity") from these tests are collated in Table I below with reference to the Examples given in the description.

inhibition at 1 µM [%] | SMILES
98.6 | COC(=O)[C@@H]1CCCN1S(=O)(=O)c1ccc(Cl)c(COc2cccc3ccc(C)nc23)c1Cl [Example 2, N-[[3-[(2-Methylquinolin-8-yl)oxymethyl]-2,4-dichlorophenyl]sulfonyl]-L-proline Methyl Ester]
93.8 | Cc1ccc2cccc(OCc3c(Cl)ccc(S(=O)(=O)n4cccc4)c3Cl)c2n1 [Example 17, 1-[[3-[(2-Methylquinolin-8-yl)oxymethyl]-2,4-dichlorophenyl]sulfonyl]pyrrole]
98.6 | CC(=O)NC1CCN(S(=O)(=O)c2ccc(Cl)c(COc3cccc4ccc(C)nc34)c2Cl)C1 (stereo not shown) [Example 13, 3-[(1-Oxoethyl)amino]-1-[[3-[(2-methylquinolin-8-yl)oxymethyl]-2,4-dichlorophenyl]sulfonyl]pyrrolidine]
94.9 | Cc1ccc2cccc(OCc3c(Cl)ccc(S(=O)(=O)N4CCSC4)c3Cl)c2n1 [Example 15, 3-[[3-[(2-Methylquinolin-8-yl)oxymethyl]-2,4-dichlorophenyl]sulfonyl]-thiazolidine]
97.8 | COC(=O)C1CCCN1S(=O)(=O)c1ccc(Cl)c(COc2cccc3ccc(C)nc23)c1Cl (racemic) [Example 1, N-[[3-[(2-Methylquinolin-8-yl)oxymethyl]-2,4-dichlorophenyl]sulfonyl]-D,L-proline Methyl Ester]
97.6 | Cc1ccc2cccc(OCc3c(Cl)ccc(S(=O)(=O)N4CCCC4C(=O)NCCCN)c3Cl)c2n1 (stereo not shown) [Example 9, 1-[[3-[(2-Methylquinolin-8-yl)oxymethyl]-2,4-dichlorophenyl]sulfonyl]-N-[3-aminopropyl]-2-pyrrolidinecarboxamide]
97.8 | Cc1ccc2cccc(OCc3c(Cl)ccc(S(=O)(=O)N4CCCC4C(=O)NCCCCCO)c3Cl)c2n1 (stereo not shown) [Example 7, 1-[[3-[(2-Methylquinolin-8-yl)oxymethyl]-2,4-dichlorophenyl]sulfonyl]-N-[5-hydroxypentyl]-2-pyrrolidinecarboxamide]
95.5 | Cc1ccc2cccc(OCc3c(Cl)ccc(S(=O)(=O)N4CCCC4C(=O)NCCN(C)C)c3Cl)c2n1 (stereo not shown) [Example 8, 1-[[3-[(2-Methylquinolin-8-yl)oxymethyl]-2,4-dichlorophenyl]sulfonyl]-N-[2-dimethylaminoethyl]-2-pyrrolidinecarboxamide Dihydrochioride]
92.6 | COCCNC(=O)C1CCCN1S(=O)(=O)c1ccc(Cl)c(COc2cccc3ccc(C)nc23)c1Cl (stereo not shown) [Example 4, 1-[[3-[(2-Methylquinolin-8-yl)oxymethyl]-2,4-dichlorophenyl]sulfonyl]-N-[2-methoxyethyl]-2-pyrrolidinecarboxamide]
90.1 | Cc1ccc2cccc(OCc3c(Cl)ccc(S(=O)(=O)N4CCCC4)c3Cl)c2n1 [Example 16, 1-[[3-[(2-Methylquinolin-8-yl)oxymethyl]-2,4-dichlorophenyl]sulfonyl]-pyrrolidine]
94 | Cc1ccc2cccc(OCc3c(Cl)ccc(S(=O)(=O)N4CCC(O)C4)c3Cl)c2n1 (stereo not shown) [Example 14, 3-Hydroxy-1-[[3-[(2-methylquinolin-8-yl)oxymethyl]-2,4-dichlorophenyl]-sulfonyl]pyrrolidine]
76.9 | Cc1ccc2cccc(OCc3c(Cl)ccc(S(=O)(=O)N4CCCC4C(=O)OCCCN(C)C)c3Cl)c2n1 (racemic) [Example 11, N-[[3-[(2-Methylquinolin-8-yl)oxymethyl]-2,4-dichlorophenyl]sulfonyl]-D,L-proline 3-(dimethylamino)propyl Ester]
98.5 | CCNC(=O)[C@@H]1CCCN1S(=O)(=O)c1ccc(Cl)c(COc2cccc3ccc(C)nc23)c1Cl [Example 12, 1-[[3-[(2-Methylquinolin-8-yl)oxymethyl]-2,4-dichlorophenyl]sulfonyl]-N-ethyl-2-(S)-pyrrolidinecarboxamide]
90.9 | Cc1ccc2cccc(OCc3c(Cl)ccc(S(=O)(=O)N4CCCC4C(=O)NCCCO)c3Cl)c2n1 (stereo not shown) [Example 6]
96.4 | Cc1ccc2cccc(OCc3c(Cl)ccc(S(=O)(=O)N4CCCC4C(=O)NCc4ccccc4)c3Cl)c2n1 (stereo not shown) [Example 10, 1-[[3-[(2-Methylquinolin-8-yl)oxymethyl]-2,4-dichlorophenyl]sulfonyl]-N-[phenylmethyl]-2-pyrrolidinecarboxamide]
90.1 | Cc1ccc2cccc(OCc3c(Cl)ccc(S(=O)(=O)N4CCCC4C(=O)NCCO)c3Cl)c2n1 (stereo not shown) [Example 5, 1-[[3-[(2-Methylquinolin-8-yl)oxymethyl]-2,4-dichlorophenyl]sulfonyl]-N-[2-hydroxyethyl]-2-pyrrolidinecarboxamide]
